Values joined by “and” are separate entries in the source; they are usually repeats but may differ in a detail not shown here. Equal values may be shown once. Read-outs that look alike come from different tables or passages of the source.
Legend:
[1] = test system: P. falciparum 3D7 Clone / 3D7 Parental; experiment: SYBR Green dose response, cloned 3D7 control/parental lines of the resistance selection; type: cell-based, Plasmodium falciparum
Description: To assess whether we could use the DMSO melting curves previously established for […] by Dziekan et al. ([49]), we calculated the difference in melting temperatures (ΔTm) between our DMSO dataset and Dziekan’s for 364 proteins for which Tm values were confidently calculated by mineCETSA (table S6).
Fig. 4. […] (C) Schematic representation of the CRISPR-Cas9–based replacement strategy used to introduce a deletion of the targeted repeat regions in the PfSec13 gene. The insertion was achieved through overlap extension polymerase chain reaction (PCR) of fragments directly upstream and downstream of the target segment and subsequently formed by primer overlap extension PCR to replicate the desired deletion. […] (D) Predicted structure of the SEC13 protein highlighting the seven amino acid tandem repeat regions targeted for deletion (red). […] Data were analyzed using a Sigmoidal, 4PL (X represents concentration, n = 3, nonlinear regression, CI: 95%).
P. falciparum in vitro SYBR green fluorescence-based assays The anti-malarial activity of individual analogues were evaluated in-vitro against P. falciparum 3D7 (MRA-102, drug […]
green-I based fluorescence assay. Parasite growth rate and stages of development were determined via microscopy through Giemsa-stained smears of the cultures. Serial dilutions of the compounds ranging from 10uM-0.5nM were prepared in 96-well plates (Corning, Costar 3904) followed by […]
hematocrit added to each well. Eight wells were treated with vehicle control (DMSO) as control.
Plates were incubated in a modular incubation chamber (Billups-Rothenberg, Del Mar, CA)

P. falciparum cultures = experiment: Exponential killing rate at IC80; type: cell-based, Plasmodium falciparum; details: triplicate
THP1 = experiment: Human cell line activity, THP1; type: cell-based; details: THP-1, read-out: IC50 (µM) THP1
[2] = Pharmacokinetic profile at 25 and 50 mg/Kg (Table S9b); type: in vivo, Male CD1 mouse; details: for Cmax: oral, blood; for AUC(0-inf): read-out: AUCINF_obs
Protocol: An Acquity ultra-performance liquid chromatography (UPLC) system (Waters Corp., Milford, MA, USA) couple to a triple quadrupole mass spectrometer (API 4000, AB Sciex, Foster City, CA, USA) was used for the analysis ([99]).
Blood concentration time data were analyzed by Non-Compartmental PK analysis using Phoenix WinNonlin software (Certara, NY, US) to calculate PK parameters. […]
were housed in cages (Tecniplast®). The cages contained autoclaved dust free corncob bedding […]
provided ad libitum. Environmental conditions: Photoperiods, simulated dawn/dusk facility, were […]
The temperature range was 22± 2 °C. […]
route, once a day, 10ml/kg). […]
Two mice were treated at 50
To confirm the data, 3 animals per dose
(hematology, clinical chemistry, and necropsy). Additionally in the same animals with the same […]
determination of blood level exposures and pharmacokinetic analysis. […]
Peripheral blood […]
samples (15 µL) were taken at frequent intervals, mixed with 30 µL of H2O milli Q and immediately frozen on dry ice. The frozen samples were stored at −80 °C until analysis. Vehicle-treated mice experienced the same blood-sampling regimen (table S9, S10).
Bioanalysis and pharmacokinetics analysis: LC-MS
Bioanalysis of in vivo samples: Sample pretreatment Before the analysis 15ul of blood samples were defrost at ambient temperature and mixture with 200ul of ACN:MeOH (80:20). After protein precipitation samples were filtered by 0.45um filter plate (Multiscreen Solvinert 0.45um FTPE, Millipore). The 2ul TFA (Trifluoroacetic acid, sigmaAldrich) were added to each filtered sample in order to derivatize the compound to formamide analogue. This process occurs spontaneously.
LC-MS analysis An Acquity Ultra-Performance liquid chromatography (UPLC) system (Waters Corp., Milford, MA, USA) couple to a triple quadrupole mass spectrometer (API 4000™, AB Sciex, Foster City, CA, USA) was used for the analysis. The MS/MS transition was 311.340 / […]
The chromatographic separation was carried out at 0.4ml/min in a Acquity UPLC™ BEH C18 column (50x2.1 mm i.d., […]; Waters Corp.) at 40 °C with Acetonitrile (sigmaAldrich) and 0.1% formic acid as eluents.
Pharmacokinetic analysis Blood concentration time data were analyzed by Non-Compartmental PK analysis using Phoenix WinNonlin software (Certara NY, US) to calculate PK parameters. The maximum observed concentration (Cmax) and the time to reach it (Tmax), were determined. The area under concentration-time curve from dosing at time zero to the last measured concentration […]
time (AUClast) and the total area under concentration-time curve from time zero extrapolated to infinity (AUCinf), were calculated using a linear trapezoidal rule. […]

[3] = test system: P. falciparum metabolites; experiment: LC-MS metabolomic profiling (lipids and polar metabolites); type: cell-based, Plasmodium falciparum; details: treated parasites, second IEC (72 hours after treatment)
[4] = male, CD1, mouse, whole blood, po, 25 mg/kg, Mean
[5] = male, CD1, mouse, whole blood, po, 50 mg/kg, Mean
[6] = male, CD1, mouse, whole blood, po, 50 mg/kg, individual mice

For `[C-]#[N+][C@]1(C)CC[C@H]2[C@@H]([C@@H](C(C)C)CC[C@]2(C)[N+]#[C-])[C@H]1O` [MED6-189], the IC50 ([1]; 3D7 Parental, drug-sensitive parental line) was 15 nM, the IC50 ([1]; Plasmodium falciparum, 3D7, 3D7 Clone (drug sensitive)) was 13 nM and the IC50 ([1]; Plasmodium falciparum, 3D7, 3D7 Parental, drug-sensitive parental line) was about 14 nM. The “Exponential killing rate k = (1/t)* log10(N0/Nt)” value (P. falciparum cultures; at IC80, 48 HPS) was 0.008801, the “Exponential killing rate k = (1/t)* log10(N0/Nt)” value (P. falciparum cultures; at IC80, 72 HPS) was 0.007941 and the “Exponential killing rate k = (1/t)* log10(N0/Nt)” value (P. falciparum cultures; at IC80, 100 HPS) was 0.0183. The IC50 (THP1) was 12 µM, the AUCINF_D_obs ([2]; 25 mg/Kg, Mean) was 1505 kg·ng·h/mL/mg and the AUC_%Extrap_obs ([2]; 25 mg/Kg, Mean) was 0.955%. The AUClast_D ([2]; 25 mg/Kg, Mean) was 1491.7 kg·ng·h/mL/mg, the Cmax_D ([2]; 25 mg/Kg, Mean) was 188.6 kg·ng/mL/mg and the HL_Lambda_z ([2]; 25 mg/Kg, Mean) was 3.711 h. For the same molecule, the AUCINF_D_obs ([2]; 25 mg/Kg, individual mice) was 2105.77 kg·ng·h/mL/mg and 904.22 kg·ng·h/mL/mg, the AUCINF_obs ([2]; 25 mg/Kg, individual mice) was 52644.4 ng·h/mL and 22605.6 ng·h/mL and the AUC_%Extrap_obs ([2]; 25 mg/Kg, individual mice) was 0.78% and 1.13%. For the same molecule, the AUClast ([2]; 25 mg/Kg, individual mice) was 52232.7 ng·h/mL and 22350.5 ng·h/mL, the AUClast_D ([2]; 25 mg/Kg, individual mice) was 2089.31 kg·ng·h/mL/mg and 894.02 kg·ng·h/mL/mg and the Cmax_D ([2]; 25 mg/Kg, individual mice) was 232.4 kg·ng/mL/mg and 144.8 kg·ng/mL/mg. For the same molecule, the HL_Lambda_z ([2]; 25 mg/Kg, individual mice) was 3.31 h and 4.11 h, the Cmax ([2]; 25 mg/Kg, individual mice 1 and 2) was 3620 ng/mL and the AUCINF_D_obs ([2]; 50 mg/Kg, Mean) was 2099.8 kg·ng·h/mL/mg. For the same molecule, the AUC_%Extrap_obs ([2]; 50 mg/Kg, Mean) was 4.415%, the AUClast_D ([2]; 50 mg/Kg, Mean) was 2014.32 kg·ng·h/mL/mg and the Cmax_D ([2]; 50 mg/Kg, Mean) was 158.4 kg·ng/mL/mg. The HL_Lambda_z ([2]; 50 mg/Kg, Mean) was 4.536 h, the AUCINF_D_obs ([2]; 50 mg/Kg, individual mice) was 1882 kg·ng·h/mL/mg and 2317.54 kg·ng·h/mL/mg and the AUCINF_obs ([2]; 50 mg/Kg, individual mice) was 115877 ng·h/mL. For the same molecule, the AUC_%Extrap_obs ([2]; 50 mg/Kg, individual mice) was 7.74% and 1.09%, the AUClast ([2]; 50 mg/Kg, individual mice) was 114617 ng·h/mL and the AUClast_D ([2]; 50 mg/Kg, individual mice) was 1736.3 kg·ng·h/mL/mg and 2292.34 kg·ng·h/mL/mg. For the same molecule, the Cmax_D ([2]; 50 mg/Kg, individual mice) was 137.2 kg·ng/mL/mg and 179.6 kg·ng/mL/mg, the HL_Lambda_z ([2]; 50 mg/Kg, individual mice) was 5.74 h and 3.33 h and the Cmax ([2]; 50 mg/Kg, individual mice 1 and 2) was 8980 ng/mL. It also gave an AUC(0-t) [2, 4] of 37300 ng·h/mL, an AUC(0-inf) [2, 4] of 37600 ng·h/mL and a Cmax ([2]; male, CD1, mouse, whole blood, po, 25 mg/kg, Mean of 2 mice, read-out: Cmax) of 4720 ng/mL. It also gave a Cmax ([2]; male, CD1, mouse, whole blood, po, 25 mg/kg, individual mice 1 and 2, read-out: Cmax) of 5810 ng/mL, an AUC(0-t) [2, 5] of 101000 ng·h/mL and an AUC(0-inf) [2, 5] of 105000 ng·h/mL. It also gave an AUC(0-t) [2, 6] of 86800 ng·h/mL, an AUC(0-inf) [2, 6] of 94100 ng·h/mL and a Cmax ([2]; male, CD1, mouse, whole blood, po, 50 mg/kg, Mean of 2 mice, read-out: Cmax) of 7920 ng/mL. For the same molecule, the Cmax ([2]; male, CD1, mouse, whole blood, po, 50 mg/kg, individual mice 1 and 2, read-out: Cmax) was 6860 ng/mL, the Tmax ([2]; male, CD1, mouse, whole blood, po, 25 mg/Kg, individual mice) was 4 h and the Tmax ([2]; male, CD1, mouse, whole blood, po, 50 mg/Kg, individual mice) was 7 h. The “increase in lysophosphatidylcholine (LPC) steady-state levels” value [3] was about 3.5 fold.
